Laboratory results as given in PubChem BioAssay AID192 (DTP/NCI, 2004).
Several values for one entry are separate records, joined by “and”; a condition that tells them apart may be missing. Equal values may be shown once. Toxic doses and inconclusive results are not listed. How the source made its calls: active means survival T/C of 150% or more; inactive means T/C below 125% in these data. Square brackets hold non-standard residues; d marks the D form. Peptide text beside a SMILES is read from it. * marks the point of attachment. ξ: configuration not given here. ξAsp(βξ-Me) = CC(C(=O)O)C(N)C(=O)O; X4 = CC(N*)C1NC(=O)C2CCCCN2C1=O; ξAbu(3ξ-NH2) = CC(N)C(N)C(=O)O; X3 = CCC(C)CCC/C=C/CC(=O)*

System: BDF1 mice, B16 melanoma ip, median survival T/C
Test: NCI In Vivo Anticancer Drug Screen. Data for tumor model B16 Melanoma (intraperitoneal) in B6D2F1 (BDF1) mice
Settings: endpoint: median survival time, higher = longer survival
Outline: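 Read-out: survival or tumor size, given as treated/control ratio. Controls received vehicle only; animals bore transplantable tumors.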

[1] = dose: 50.0 mg/kg/injection, schedule: Q01DX009 (ip), vehicle: Klucel (hydroxypropylcellulose) (HPC)
[2] = dose: 100.0 mg/kg/injection, schedule: Q01DX009 (ip), vehicle: Klucel (hydroxypropylcellulose) (HPC)
[3] = dose: 25.0 mg/kg/injection, schedule: Q01DX009 (ip), vehicle: Klucel (hydroxypropylcellulose) (HPC)
[4] = dose: 100.0 mg/kg/injection, schedule: Q04DX003 (ip), vehicle: saline with Tween-80
[5] = dose: 12.5 mg/kg/injection, schedule: Q01DX009 (ip), vehicle: saline with Tween-80
[6] = dose: 25.0 mg/kg/injection, schedule: Q01DX009 (ip), vehicle: saline with Tween-80
[7] = dose: 5.0 mg/kg/injection, schedule: Q01DX009 (ip), vehicle: saline with Tween-80
[8] = dose: 6.25 mg/kg/injection, schedule: Q01DX009 (ip), vehicle: saline
[9] = dose: 12.5 mg/kg/injection, schedule: Q01DX009 (ip), vehicle: saline
[10] = dose: 25.0 mg/kg/injection, schedule: Q01DX009 (ip), vehicle: saline
[11] = dose: 50.0 mg/kg/injection, schedule: Q01DX009 (ip), vehicle: saline with Tween-80
[12] = dose: 50.0 mg/kg/injection, schedule: Q01DX009 (ip), vehicle: saline
[13] = dose: 100.0 mg/kg/injection, schedule: Q01DX009 (ip), vehicle: saline with Tween-80
[14] = dose: 100.0 mg/kg/injection, schedule: Q01DX009 (ip), vehicle: saline
[15] = dose: 200.0 mg/kg/injection, schedule: Q01DX009 (ip), vehicle: saline with Tween-80
[16] = dose: 200.0 mg/kg/injection, schedule: Q01DX009 (ip), vehicle: saline

Measured: T/C

CC(=O)SCCC(=O)O
inactive: dose: 0.75 mg/kg/injection, schedule: Q01DX009 (ip), vehicle: saline 107 % of control | dose: 1.5 mg/kg/injection, schedule: Q01DX009 (ip), vehicle: saline 112 % of control | dose: 3.0 mg/kg/injection, schedule: Q01DX009 (ip), vehicle: saline 114 % of control

CC1(C)CCSC(/C=C/c2ccccc2)=N1
inactive: [1] 96 % of control | [2] 94 % of control | dose: 200.0 mg/kg/injection, schedule: Q01DX009 (ip), vehicle: Klucel (hydroxypropylcellulose) (HPC) 91 % of control

CN(C)C(C#N)C(=O)c1ccccc1 (centres undefined)
inactive: [3] 104 % of control | [1] 97 % of control | [2] 97 % of control

CCCCN(CCCC)C(=O)c1[nH]cnc1/N=N\N(C)C
inactive: dose: 12.5 mg/kg/injection, schedule: Q04DX003 (ip), vehicle: saline with Tween-80 110 % of control | dose: 25.0 mg/kg/injection, schedule: Q04DX003 (ip), vehicle: saline with Tween-80 92 % of control | dose: 50.0 mg/kg/injection, schedule: Q04DX003 (ip), vehicle: saline with Tween-80 117 % of control | [4] 93 % of control

CCc1ccc(C2=C(O)C(=O)C(c3ccc(CC)cc3)=C(O)C2=O)cc1
inactive: dose: 3.12 mg/kg/injection, schedule: Q01DX009 (ip), vehicle: saline with Tween-80 114 % of control | dose: 6.25 mg/kg/injection, schedule: Q01DX009 (ip), vehicle: saline with Tween-80 103 % of control | [5] 113 % of control and 119 % of control | [6] 112 % of control and 122 % of control

CCC(C)CCC/C=C/CC(=O)NC(CC(=O)O)C(=O)NC(C(=O)NC(CC(=O)O)C(=O)NCC(=O)NC(CC(=O)O)C(=O)NCC(=O)NC(C(=O)NC(C(=O)N1CCCC1C(=O)NC(C)C1NC(=O)C2CCCCN2C1=O)C(C)C)C(C)N)C(C)C(=O)O (stereo not drawn) (X3-D[ξAsp(βξ-Me)]DGDG[ξAbu(3ξ-NH2)]VP-X4; configuration not given here)
inactive: dose: 100.0 mg/kg/injection, schedule: Q01DX009 (ip), vehicle: saline + alcohol 90 % of control | dose: 200.0 mg/kg/injection, schedule: Q01DX009 (ip), vehicle: saline + alcohol 93 % of control

COC1N(C2CC(O)C(CO)O2)C(=O)NC(=O)C1(F)Br (centres undefined)
inactive: dose: 1.56 mg/kg/injection, schedule: Q01DX009 (ip), vehicle: saline 100 % of control | dose: 3.12 mg/kg/injection, schedule: Q01DX009 (ip), vehicle: saline 87 % of control | [7] 106 % of control | [8] 102 % of control | dose: 10.0 mg/kg/injection, schedule: Q01DX009 (ip), vehicle: saline with Tween-80 109 % of control | [9] 108 % of control | dose: 20.0 mg/kg/injection, schedule: Q01DX009 (ip), vehicle: saline with Tween-80 104 % of control | [10] 88 % of control

CCOC(=O)CC(SP(=S)(OC)OC)C(=O)OCC (centres undefined)
inactive: [6] 94 % of control and 107 % of control | [10] 106 % of control | [11] 96 % of control and 97 % of control | [12] 95 % of control | [13] 91 % of control and 98 % of control | [14] 101 % of control | [15] 88 % of control and 96 % of control | [16] 101 % of control

Cn1c(=O)[nH]c2nncnc2c1=O
inactive: dose: 0.37 mg/kg/injection, schedule: Q01DX009 (ip), vehicle: water 99 % of control | dose: 0.75 mg/kg/injection, schedule: Q01DX009 (ip), vehicle: water 118 % of control | dose: 1.5 mg/kg/injection, schedule: Q01DX009 (ip), vehicle: water 103 % of control | dose: 3.0 mg/kg/injection, schedule: Q01DX009 (ip), vehicle: water 99 % of control

CC1CC(C)OS(=O)O1 (centres undefined)
inactive: dose: 12.5 mg/kg/injection, schedule: Q01DX009 (ip), vehicle: saline sonified 108 % of control | dose: 25.0 mg/kg/injection, schedule: Q01DX009 (ip), vehicle: saline sonified 100 % of control | dose: 50.0 mg/kg/injection, schedule: Q01DX009 (ip), vehicle: saline sonified 100 % of control

Cc1cc(Cl)ccc1NC(=O)Nc1ccccc1Cl
inactive: dose: 18.8 mg/kg/injection, schedule: Q01DX009 (ip), vehicle: Klucel (hydroxypropylcellulose) (HPC) 104 % of control | dose: 37.5 mg/kg/injection, schedule: Q01DX009 (ip), vehicle: Klucel (hydroxypropylcellulose) (HPC) 91 % of control | dose: 75.0 mg/kg/injection, schedule: Q01DX009 (ip), vehicle: Klucel (hydroxypropylcellulose) (HPC) 94 % of control

Cc1cc(=O)[nH]c2c1C(=O)c1c(C)cc(=O)n(C)c1C2=O
inactive: dose: 0.5 mg/kg/injection, schedule: Q04DX003 (ip), vehicle: Klucel (hydroxypropylcellulose) (HPC) 92 % of control | dose: 1.25 mg/kg/injection, schedule: Q04DX003 (ip), vehicle: Klucel (hydroxypropylcellulose) (HPC) 102 % of control | dose: 2.5 mg/kg/injection, schedule: Q04DX003 (ip), vehicle: Klucel (hydroxypropylcellulose) (HPC) 89 % of control

CCN(CC)CC(C)(C)CO
inactive: [11] 99 % of control | [13] 101 % of control | [15] 89 % of control

CC1C2Cc3ccc(O)cc3C1(C)CCN2CC1CC1 (centres undefined)
inactive: [3] 100 % of control | [1] 94 % of control | [2] 95 % of control

C[N+]1(C)CCCC1
inactive: [8] 111 % of control | dose: 6.25 mg/kg/injection, schedule: Q04DX003 (ip), vehicle: saline 95 % of control | [9] 100 % of control | dose: 12.5 mg/kg/injection, schedule: Q04DX003 (ip), vehicle: saline 95 % of control | [10] 91 % of control | dose: 25.0 mg/kg/injection, schedule: Q04DX003 (ip), vehicle: saline 95 % of control

CCN(CC)CCNc1ccc(C)c2sc3ccccc3c(=O)c12
inactive: dose: 6.25 mg/kg/injection, schedule: Q01DX009 (ip), vehicle: suspension in saline 103 % of control | dose: 12.5 mg/kg/injection, schedule: Q01DX009 (ip), vehicle: suspension in saline 105 % of control | dose: 25.0 mg/kg/injection, schedule: Q01DX009 (ip), vehicle: suspension in saline 103 % of control | dose: 50.0 mg/kg/injection, schedule: Q01DX009 (ip), vehicle: suspension in saline 102 % of control | dose: 100.0 mg/kg/injection, schedule: Q01DX009 (ip), vehicle: suspension in saline 120 % of control

CC(C)C1=CC2=CCC3C(C)(CN)CCCC3(C)C2CC1CCN (centres undefined)
inactive: dose: 1.25 mg/kg/injection, schedule: Q01DX009 (ip), vehicle: saline with Tween-80 100 % of control | dose: 1.25 mg/kg/injection, schedule: Q04DX003 (ip), vehicle: saline with Tween-80 104 % of control | dose: 2.5 mg/kg/injection, schedule: Q01DX009 (ip), vehicle: saline with Tween-80 99 % of control | dose: 2.5 mg/kg/injection, schedule: Q04DX003 (ip), vehicle: saline with Tween-80 88 % of control | [7] 91 % of control | dose: 5.0 mg/kg/injection, schedule: Q04DX003 (ip), vehicle: saline with Tween-80 90 % of control

COc1cc(C2C3=C(CC(C)(C)CC3=O)N(CC(=O)O)C3=C2C(=O)CC(C)(C)C3)ccc1O
inactive: dose: 50.0 mg/kg/injection, schedule: Q01DX009 (ip), vehicle: water 103 % of control | dose: 100.0 mg/kg/injection, schedule: Q01DX009 (ip), vehicle: water 101 % of control | dose: 200.0 mg/kg/injection, schedule: Q01DX009 (ip), vehicle: water 115 % of control

CC1(C)OC(CI)C(COS(C)(=O)=O)O1 (centres undefined)
inactive: [5] 97 % of control | [6] 97 % of control | [11] 96 % of control and 100 % of control

O=C(OCc1ccccc1)C(Cl)(Cl)Cl
inactive: [4] 105 % of control | dose: 200.0 mg/kg/injection, schedule: Q04DX003 (ip), vehicle: saline with Tween-80 100 % of control | dose: 400.0 mg/kg/injection, schedule: Q04DX003 (ip), vehicle: saline with Tween-80 102 % of control

Cc1cc2nc(-c3ccccc3)c(-c3ccccc3)nc2cc1C
inactive: [13] 102 % of control | [15] 100 % of control | dose: 400.0 mg/kg/injection, schedule: Q01DX009 (ip), vehicle: saline with Tween-80 91 % of control

CCOC(=O)CCc1ccc(O)c(O)c1
inactive: dose: 37.5 mg/kg/injection, schedule: Q04DX003 (ip), vehicle: saline 102 % of control | [12] 113 % of control | dose: 75.0 mg/kg/injection, schedule: Q04DX003 (ip), vehicle: saline 102 % of control | [14] 110 % of control | dose: 150.0 mg/kg/injection, schedule: Q04DX003 (ip), vehicle: saline 97 % of control | [16] 97 % of control
